Source: patent US11351222B2, “Di-sulfide containing cell penetrating peptides and methods of making and using thereof” (Ohio State Innovation Foundation, priority 2016, dated 2022)
Bridge positions count the residues as written; N and C are the ends. Square brackets hold non-standard residues; d marks the D form. Ends that are not written are not given here. BMB = 3,5-bis(mercaptomethyl)benzoic acid scaffold; 2Nal = N[C@@H](Cc1ccc2ccccc2c1)C(=O)O

Assays:
[1] = system: HeLa cells; test: Flow cytometry cellular uptake of FITC-labeled peptides; format: cell-based; conditions: for mean fluorescence intensity (MFI): 5 μM FITC-labeled peptide; for mean fluorescence intensity (MFI) / higher cell entry efficiency than cFΦR4: 2 h; for higher cell entry efficiency than cFΦR4: 5 μM
Protocol: HeLa cells were cultured in six-well plates (5×10^5 cells per well) for 24 h. On the day of experiment, the cells were incubated with 5 μM FITC-labeled peptide in clear DMEM with 1% FBS at 37° C. for 2 h. The cells were washed with DPBS, detached from plate with 0.25% trypsin, diluted into clear DMEM containing 10% FBS, pelleted at 250 g for 5 min, washed once with DPBS and resuspended in DPBS containing 1% bovine serum albumin, and analyzed on a BD LSR II flow cytometer. Data were analyzed with Flowjo software (Tree Star).
To monitor their cellular uptake, peptides 2 and 3 were labeled with fluorescein isothiocyanate (FITC) on the side chain of a C-terminal lysine. […] Thus, bicyclic peptides 2 and 3 entered HeLa cells with 72% and 36% higher efficiencies, respectively, than cFΦR4 (SEQ ID NO.:72).
Peptides 4 and 5 were labeled with FITC at the side chain of a lysine added to their C-termini and their cellular entry was assessed by flow cytometry. […] Briefly, in the presence of an anti-glutathione-S-transferase (GST) antibody labeled with a fluorescence donor (Tb) and streptavidin labeled with a fluorescence acceptor (d2), binding of GST-NEMO to a biotinylated IKKβ fragment (amino acids 701-745) (B. Gao, et al., Biochemistry 2014, 53, 677) results in a resonance energy transfer. Addition of a NEMO inhibitor blocks the NEMO-IKKβ interaction and reduces the HTRF signal. […] IKKβ contains a phenylalanine at the same position (Phe-734). […] Thus, the phenylalanine in peptide 4 likely plays dual roles of cellular entry and NEMO binding.

[2] = system: mammalian cells; conditions: previously reported; cited from earlier work
[3] = target: T1, NEMO-IKKβ interaction (Homo sapiens, UniProt Q9Y6K9); test: HTRF assay of the NEMO-IKKβ interaction; format: binding; conditions: up to 100 μM peptide, 5 mM TCEP
T1 construct: transformed with a pGEX4T3-GST-NEMO(1-196) plasmid; made in house; host or cells: Escherichia coli BL21(DE3)
T1 sequence (Q9Y6K9 1-196): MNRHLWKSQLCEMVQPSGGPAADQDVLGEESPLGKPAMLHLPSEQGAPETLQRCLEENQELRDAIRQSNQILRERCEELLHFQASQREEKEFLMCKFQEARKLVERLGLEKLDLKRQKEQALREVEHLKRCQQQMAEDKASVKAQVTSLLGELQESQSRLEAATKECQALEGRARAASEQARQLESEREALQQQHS

[4] = system: TNFα-induced activation of NF-κB in NF-κB reporter (Luc)-HEK293 cells; test: NF-κB luciferase assay
Protocol: NF-κB reporter (Luc)-HEK293 cells were seeded in 96-well microplate in 45 μL of assay medium (DMEM, 10% FBS, and 1% penicillin/streptomycin, 1500 cells per well) and cultured overnight. Five μL of NEMO inhibitor in assay medium was added to cells and the cells were incubated for 2 h. Recombinant TNFα^3 in 5 μL of assay medium was added to the wells at the final concentration of 5 ng/mL. After 4 h of incubation, 55 μL of ONE-Step luciferase assay reagent was added to each well. Luminescence was measured after 10 min of incubation using a Tecan Infinite M1000 Pro microplate reader. Luciferase activities of TNFα unstimulated and stimulated cells were recorded as AU″ and AU^+, respectively. Luciferase activities of TNFα stimulated cells after incubating with different concentrations of NEMO inhibitors were recorded as AU^pep.
The ability of the bicyclic peptides to modulate the NEMO-IKK interaction inside the cell was assessed by monitoring the TNFα-induced activation of NF-κB.

## 2: bicyclic model peptide with CPP motif and mock cargo SASAS on BMB scaffold (cyclo(RRRR[2Nal]FCSASASCK); linker 7-13 via BMB (inferred)) [Peptide 2]
[1]
  mean fluorescence intensity (MFI): 5180
[1]; relative to cFΦR4
  higher cell entry efficiency than cFΦR4: 72%

## 3: bicyclic model peptide with CPP motif and mock cargo SASAS on BMB scaffold (cyclo(SASASCF[2Nal]RRRRCK); linker 6-13 via BMB (inferred)) [Peptide 3]
[1]
  mean fluorescence intensity (MFI): 4100
[1]; relative to cFΦR4
  higher cell entry efficiency than cFΦR4: 36%

## Cyclo(FΦRRRRQ) [cFΦR4, reference compound]
[2]
  cytosolic delivery efficiency (ratio of cytosolic over extracellular cargo concentration): 20%
[1]
  mean fluorescence intensity (MFI): 3020

## 5: control, similar to peptide 4 but two Ala residues in place of the two Trp residues (RRRR[2Nal]FCALDASALQC; linker 7-16 via BMB; not fully specified (C-terminus, bridges)) [Peptide 5]
[3]
  inhibition of the NEMO-IKKβ interaction: only minor inhibition
[1]; FITC-labeled peptide, relative to cFΦR4
  MFI higher than that of cFΦR4: 2 fold
[4]; at 20 μM
  effect on NF-κB signaling: no significant effect
[4]; highest concentration tested (40 μM)
  inhibition of NF-κB signaling: ~10%
